Source: paper PMC10115881, “Disrupting the α-synuclein-ESCRT interaction with a peptide inhibitor mitigates neurodegeneration in preclinical models of Parkinson’s disease” (Nature Communications, 2023)
No end group written: not given here. *: point of attachment. FITC = O=C1OC2(c3ccc(O)cc3Oc3cc(O)ccc32)c2ccc(NC(=S)*)cc21

Experiments:
[1] = tested on: A53T a-syn expressing HEK293 cells; experiment: Cell Titer-Glo cell viability, A53T a-syn expressing cells; assay type: cell-based, human; settings: for cell viability effect of peptides: A53T a-syn, Supp Figure 1A; for Cell viability: A53T, MG132 10 μM, 72 h; for Effect of MIM motif peptides on cell viability in A53T a-syn expressing cells: Supp Figure 1H
Protocol: (§1) Oligonucleotides encoding the specific peptides were synthesized and individually cloned into the pLJM1 nGFP lentiviral vector. HEK293T cells were infected with individual constructs, and cell viability was assessed using Cell Titer-Glo luminescent assay (Promega) at 72 h post infection.
(§2) Cells were trypsinized from subconfluent cultures as described earlier, suspended in culture media, and then seeded into triplicate wells of a 96-well plate (100 µl/well) at a density of 1.5 × 10^4 cells per well with standard culture conditions of 5% CO2 at 37 °C. Cells were infected with lentivirus expressing peptide at a MOI of 5 for 72 h or transfected with plasmid for 72 h. Cell Titer-Glo reagent was added to each well (30 µL), according to the manufacturer’s protocol and […].

[2] = tested on: WT a-syn expressing HEK293 cells; experiment: Cell Titer-Glo cell viability, WT a-syn expressing cells; assay type: cell-based, human; settings: WT alpha-synuclein; for Cell viability: MG132 10 μM, 72 h; for cell viability effect of peptides: Supp Figure 1A;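 for cell viability effect of peptides: measured without MG132 proteasome inhibitor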
Protocol: as §1, §2

Parent HEK293 cells = experiment: Cell Titer-Glo cell viability, parent cells; assay type: cell-based, human; settings: for Cell viability: MG132 10 μM, 72 h; for cell viability effect of peptides: Supp Figure 1A;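 for cell viability effect of peptides: measured without MG132 proteasome inhibitor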
Protocol: as §1, §2

WT a-syn oligomers = experiment: Luciferase PCA of WT a-syn oligomers; assay type: cell-based, human; settings: for Oligomers %: WT oligomers, luciferase activity; for Effect on WT a-syn oligomers: luciferase PCA
Protocol: as §1
(§3) Tet-off HEK293 cells stably expressing split luciferase-a-syn constructs and tet-off parent HEK293 cell lines were maintained in DMEM supplemented with 10% FBS and 1% pen/strep/glutamine. […] Cells were trypsinized from subconfluent culture and seeded in a 96-well plate at a density of 15,000 cells per well. Cells were incubated overnight at 37 °C in 5% CO2. Cells were transfected with GFP-peptide plasmids. After 6 h of incubation, 20 µL of cell medium was transferred to a black flat-bottomed 96-well plate. Fifty microliters of Working solution (Pierce Gaussia-Firefly Luciferase Dual Assay Kit, Thermo Scientific, 16181) were added into each well containing cell medium. Immediately after adding the reagent, samples were read using a luminometer with a 480 nm filter.

A53T a-syn oligomers = experiment: Luciferase PCA of A53T a-syn oligomers; assay type: cell-based, human; settings: for Effect on A53T a-syn oligomers: luciferase PCA, n=3
Protocol: as §1, §3

[3] = tested on: PDE dopaminergic neurons of A30P a-syn C. elegans; experiment: C. elegans PDE neurite length assay; assay type: in vivo
Protocol: C. elegans strains were grown and maintained under standard conditions at 22–23 °C [66]. BZ555 [dat-1p::gfp] was obtained from the C. elegans Genetics Center (CGC; University of Minnesota, St Paul, MN, USA), TWH1 ([dat-1p::a-syn(A30P), ges-1p::DsRed]; [dat-1p::gfp]) was obtained by crossing BZ555 with A30P a-syn transgenic animals (kindly provided by Dr. Takeshi Iwatsubo, University of Tokyo)[67].
The peptide construct (pPD97.78_osm-6p_TagRFP_wpeptide) was obtained by subcloning the following fragments into NheI and SpeI sites of pPD97.78 (A. Fire): NheI-AgeI […] fragment (2.4 kb) obtained by PCR using primer set 5′-[…]-3′ and 5′-[…]-3′ and N2 genomic DNA as a template, AgeI-EcoRI TagRFP fragment obtained by PCR using primer set 5′-gttgaccggt[…]-3′ and 5′-ggcagaattcga[…]-3′, EcoRI-SmaI peptide ([…]) fragment digested from CMV_[…]_worm, SmaI-SpeI unc-54 3′-UTR fragment digested from pPD95.75 (Fire vector). The TagRFP control construct was obtained by replacing the EcoRI-SmaI peptide fragment and SmaI-SpeI unc-54 3′-UTR fragment from pPD97.78_osm-6p_TagRFP_wpeptide, to EcoRI- SpeI unc-54 3′-UTR fragment digested from pPD95.75[68].
Each plasmid (40 ng/µl) was injected with a co-injection marker, sur-5p::mCherry into TWH1. The animals carrying the extrachromosomal arrays were transferred to new plates, and their progenies were analyzed at the adult stage under a widefield microscope (Zeiss AxioObserver). Pearson Chi-square test was used for statistical analysis.

[4] = tested on: LC3-HiBiT reporter in HEK293 cells; experiment: Autophagy flux assay (LC3-HiBiT reporter), HEK293 cells; assay type: cell-based, human
Description: Autophagic flux was quantitatively measured with the Autophagy LC3-HiBiT Reporter Assay System which was purchased from Promega (GA1040) and used according to the manufacturer’s instructions. When autophagy is induced, the cytosolic LC3-I fusion protein is recruited to phagophores where it becomes conjugated to phosphatidylethanolamine to form LC3-II. Upon phagophore membrane elongation and closure to form the mature autophagosome, a significant fraction of tethered LC3 protein becomes captured within the lumen together with various cargo. Subsequently, autophagosomes fuse with lysosomes to form autolysosomes, leading to the ultimate degradation of both cargo and the captured LC3 reporter protein. Thus, changes in the total level of the LC3 reporter protein can be used to monitor changes in autophagic flux. HEK293 cells (ATCC, CRL-1573) stably expressing the LC3-HiBiT reporter were trypsinized from subconfluent culture and seeded in a 10 cm plate at a density of 3.0 × 10^6 per plate. Cells were incubated overnight at 37 °C in 5% CO2. Cells were transfected with FLAG-peptide plasmids in combination with pcDNA or A53T a-syn plasmids. After 24 h, cells were trypsinized and seeded in triplicate in a white flat-bottomed 96-well plate at a density of 20,000 cells per well. Cell medium was replaced the next day with fresh medium containing DMSO, Rapamycin, or Bafilomycin A1 and incubated for 24 h at 37 °C with 5% CO2. 80 µL of Working prewarmed Nano-Glo® HiBiT lytic buffer containing HiBiT substrate and LgBit protein (N3030) were added to each well containing 20 µL of cell medium and left to incubate on a rocker for 10 min. Samples were read using a luminometer with a 480 nm filter with measured RLU being directly proportional to HiBiT-conjugated LC3.

A53T a-syn = A53T a-syn protein level in HEK293 cells by immunoblot; assay type: cell-based, human
Protocol: Infected or transfected cells were scraped from six-well dishes and lysed with lysis buffer (50 mM Tris-HCl pH 7.4, 1% Nonidet P-40, 150 mM NaCl, 1 mM EDTA, 1× protease inhibitor mixture (Sigma)) for 30 min at 4 °C. The insoluble pellet was removed following a 10,000 rpm spin for 5 min at 4 °C. Lysates were analyzed by SDS-PAGE/immunoblot using 4–20% Mini-PROTEAN Tris-glycine gels (Bio-Rad), transferred to polyvinylidene fluoride (PVDF) membranes, and blocked in 5% milk containing PBS-Tween-20 (0.1%) for 1 h. PVDF membranes were then incubated with specified primary antibodies followed by incubation with horseradish peroxidase-conjugated secondary antibodies (anti-mouse HRP-linked, Cell Signaling, catalog #7076, 1:5000; anti-rabbit HRP-linked, Cell Signaling, catalog #7074, 1:5000) and detected using enhanced chemiluminescence (GE Healthcare). Anti-a-syn antibody (clone 42) was obtained from BD Biosciences (catalog #610787, 1:1000). Anti-LAMP1 antibody was obtained from Abcam (catalog #ab24170, 1:500). Anti-beta-actin antibody was obtained from Cell Signaling (13E5) (catalog #4970, 1:1000). Anti-CD63 antibody was obtained from R&D Systems (catalog #MAB50482-SP, 1:1000).

[5] = biological target: T1, purified recombinant CHMP2B (UniProt Q9UQN3 1-213); experiment: fluorescence polarisation; FITC-peptide constant at 50 nM, CHMP2B serially diluted 1:1 from 30 μM; 50 mM Na phosphate pH 5.5 or 20 mM Na acetate pH 5.5, 0.5 mM TCEP, 0.005% Triton-X-100; 30 min at room temperature; settings: both partners purified
T1 construct: CHMP2B from the vector pET-DEST42 CHMP2B; eluted as a 26 kDa monomer; Removal of tags is not described; source: E. coli Overexpress C41, inclusion bodies, purified (Ni-NTA in guanidine HCl, dialysis, SEC)
T1 sequence (Q9UQN3 whole entry): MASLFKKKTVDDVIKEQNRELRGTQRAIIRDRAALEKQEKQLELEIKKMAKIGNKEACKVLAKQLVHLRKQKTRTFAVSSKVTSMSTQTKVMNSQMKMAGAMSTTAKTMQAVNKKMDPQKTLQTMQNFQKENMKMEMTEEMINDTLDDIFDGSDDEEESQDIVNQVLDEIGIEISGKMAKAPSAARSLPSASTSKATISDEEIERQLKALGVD

IERQLKA [PDpep1.1]
cell viability effect of peptides ([1]; replicate 1): 13600 | cell viability effect of peptides ([1]; replicate 2): 13400 | cell viability effect of peptides ([1]; replicate 3): 12400 | Cell viability ([1]; replicate 1): 6400 | Cell viability ([1]; replicate 2): 6200 | Cell viability ([1]; replicate 3): 6100 | Effect of MIM motif peptides on cell viability in A53T a-syn expressing cells ([1]; replicate 1): 6738 | Effect of MIM motif peptides on cell viability in A53T a-syn expressing cells ([1]; replicate 2): 6300 | Effect of MIM motif peptides on cell viability in A53T a-syn expressing cells ([1]; replicate 3): 6152 | Cell viability ([2]; replicate 1): 4800 | Cell viability ([2]; replicate 2): 4300 | Cell viability ([2]; replicate 3): 4100 | cell viability effect of peptides ([2]; replicate 1): 13800 | cell viability effect of peptides ([2]; replicate 2): 13400 | cell viability effect of peptides ([2]; replicate 3): 12900 | Cell viability (Parent HEK293 cells; replicate 1): 3550 | Cell viability (Parent HEK293 cells; replicate 2): 3700 | Cell viability (Parent HEK293 cells; replicate 3): 3800 | cell viability effect of peptides (Parent HEK293 cells; replicate 1): 12600 | cell viability effect of peptides (Parent HEK293 cells; replicate 2): 12000 | cell viability effect of peptides (Parent HEK293 cells; replicate 3): 12700 | Oligomers % (WT a-syn oligomers; column 1): 106.713% | Oligomers % (WT a-syn oligomers; column 2): 81.3253% | Oligomers % (WT a-syn oligomers; column 3): 66.2651% | Oligomers % (WT a-syn oligomers; column 4): 77.4527% | Oligomers % (WT a-syn oligomers; column 5): 64.5439% | Effect on WT a-syn oligomers (WT a-syn oligomers): significant reduction in a-syn oligomers | Effect on A53T a-syn oligomers (A53T a-syn oligomers): significant reduction in A53T a-syn oligomers | A53T a-syn oligomers as measured by luciferase activity (A53T a-syn oligomers; replicate 1): 261554 | A53T a-syn oligomers as measured by luciferase activity (A53T a-syn oligomers; replicate 2): 321472 | A53T a-syn oligomers as measured by luciferase activity (A53T a-syn oligomers; replicate 3): 271592

FEELEAQLARLR [TagRFP::peptide]
Effect on PDE neurite shortening ([3]; A30P human a-syn): partially rescued | Proportion displaying Long PDE neurite length ([3]; a-Syn (A30P), Marker +, adult): 36.95% | Proportion displaying Medium PDE neurite length ([3]; a-Syn (A30P), Marker +, adult): 48.43% | Proportion displaying Short PDE neurite length ([3]; a-Syn (A30P), Marker +, adult): 14.62%

CO/C1=C\C(C)=C\[C@@H](C)[C@@H](O)[C@@H](C)C/C(C)=C/C=C/[C@H](OC)[C@@H]([C@@H](C)[C@@H](O)[C@H](C)[C@@]2(O)C[C@@H](O)[C@H](C)[C@@H](C(C)C)O2)OC1=O [bafilomycin A1]
Effect on autophagic flux [4]: increases LC3 reporter levels and luminescent signal

EIERQLKALG [PDpep1.2]
cell viability effect of peptides ([1]; replicate 1): 14600 | cell viability effect of peptides ([1]; replicate 2): 15600 | cell viability effect of peptides ([1]; replicate 3): 14800 | Cell viability ([1]; replicate 1): 7500 | Cell viability ([1]; replicate 2): 6200 | Cell viability ([1]; replicate 3): 6500 | Effect of MIM motif peptides on cell viability in A53T a-syn expressing cells ([1]; replicate 1): 6674 | Effect of MIM motif peptides on cell viability in A53T a-syn expressing cells ([1]; replicate 2): 6850 | Effect of MIM motif peptides on cell viability in A53T a-syn expressing cells ([1]; replicate 3): 6527 | Cell viability ([2]; replicate 1): 4000 | Cell viability ([2]; replicate 2): 4200 | Cell viability ([2]; replicate 3): 4500 | cell viability effect of peptides ([2]; replicate 1): 13200 | cell viability effect of peptides ([2]; replicate 2): 13400 | cell viability effect of peptides ([2]; replicate 3): 13100 | Cell viability (Parent HEK293 cells; replicate 1): 4500 | Cell viability (Parent HEK293 cells; replicate 2): 5400 | Cell viability (Parent HEK293 cells; replicate 3): 4100 | cell viability effect of peptides (Parent HEK293 cells; replicate 1): 12600 | cell viability effect of peptides (Parent HEK293 cells; replicate 2): 12500 | cell viability effect of peptides (Parent HEK293 cells; replicate 3): 13000 | Oligomers % (WT a-syn oligomers; column 1): 104.991% | Oligomers % (WT a-syn oligomers; column 2): 81.7556% | Oligomers % (WT a-syn oligomers; column 3): 72.2892% | Oligomers % (WT a-syn oligomers; column 4): 74.8709% | Oligomers % (WT a-syn oligomers; column 5): 62.3924% | Effect on WT a-syn oligomers (WT a-syn oligomers): significant reduction in a-syn oligomers | Effect on A53T a-syn oligomers (A53T a-syn oligomers): significant reduction in A53T a-syn oligomers | A53T a-syn oligomers as measured by luciferase activity (A53T a-syn oligomers; replicate 1): 251502 | A53T a-syn oligomers as measured by luciferase activity (A53T a-syn oligomers; replicate 2): 281836 | A53T a-syn oligomers as measured by luciferase activity (A53T a-syn oligomers; replicate 3): 251716

CHMP2B 1-199: truncated version of CHMP2B (amino acids 1–199), in which the MIM is removed
Effect on cell survival/viability ([1]; A53T a-syn cells): rescues toxicity | Effect on A53T a-syn protein level (A53T a-syn): reduction in a-syn

CO[C@H]1C[C@@H]2CC[C@@H](C)[C@@](O)(O2)C(=O)C(=O)N2CCCC[C@H]2C(=O)O[C@H]([C@H](C)C[C@@H]2CC[C@@H](O)[C@H](OC)C2)CC(=O)[C@H](C)/C=C(\C)[C@@H](O)[C@@H](OC)C(=O)[C@H](C)C[C@H](C)/C=C/C=C/C=C/1C [rapamycin]
Effect on autophagic flux [4]: decreased LC3 reporter levels and luminescent signal

B1: FITC-labeled a-syn peptide, amino acids 103-114 (NEEGAPQEGILE) (peptide)
peptide: {FITC}-NEEGAPQEGILE
notes: α-synuclein amino acids 103-114; also called a-syn peptide fragment; source: synthetic peptide (LifeTein)
Kd [5]: 640 nM
